From US20150291625A1 (PFIZER INC., priority 2012, published 2015)
Values joined by “and” are separate entries in the source; they are usually repeats but may differ in a detail not shown here. Identical values can stand only once. Counter-ions that a name gives are not always drawn.

What was measured:
D1 [1] = molecular target: T1, D1 (Homo sapiens, UniProt P21728); experiment: D1 cAMP HTRF assay (HEK293T/hD1#1 stable cell line); assay type: cell-based; parameters: expressed in transfected cells
T1 sequence (P21728 whole entry): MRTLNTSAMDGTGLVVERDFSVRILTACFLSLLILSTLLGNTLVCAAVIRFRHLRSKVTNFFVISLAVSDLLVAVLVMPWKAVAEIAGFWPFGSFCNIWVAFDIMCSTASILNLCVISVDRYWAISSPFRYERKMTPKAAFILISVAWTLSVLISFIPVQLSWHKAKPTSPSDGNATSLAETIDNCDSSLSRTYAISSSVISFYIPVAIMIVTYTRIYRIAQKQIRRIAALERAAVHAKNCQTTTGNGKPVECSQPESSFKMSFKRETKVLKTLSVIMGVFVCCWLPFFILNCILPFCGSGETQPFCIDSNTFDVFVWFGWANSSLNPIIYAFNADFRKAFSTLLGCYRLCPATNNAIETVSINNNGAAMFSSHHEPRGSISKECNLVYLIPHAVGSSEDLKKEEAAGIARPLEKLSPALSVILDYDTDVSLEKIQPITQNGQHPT
Procedure, shortened: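 Agonist-mode HTRF cAMP assay in HEK293T/hD1#1 stable cells resuspended in PBS with 0.5 μM IBMX; compound exposure 30 min at room temperature, then cAMP-D2 and anti-cAMP-cryptate detection for 1 h. EC50 from raw ratio data or from cAMP levels interpolated on a standard curve; percent effect versus controls.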

D1 [2] = molecular target: T1, D1; experiment: Human D1 receptor binding assay ([3H]-SCH23390 competition); details: Human D1 Receptor Binding, Ki (nM), Geometric mean of 2-4 determinations, a: >=5 determinations, d: single determination

For `COc1cc(Oc2nccc3occc23)ccc1-c1c(C)cnnc1C` [Example 169, 4-[4-(3,5-dimethylpyridazin-4-yl)-3-methoxyphenoxy]furo[3,2-c]pyridine], the EC50 (D1 [1]) was 150 nM and the Ki (D1 [2]) was 29.2 nM.
For `Cc1cc(Oc2nccc3occc23)ccc1-c1cn[nH]c(=O)c1C` [Example 125, 5-[4-(furo[3,2-c]pyridin-4-yloxy)-2-methylphenyl]-4-methylpyridazin-3(2H)-one], the EC50 (D1 [1]) was 91.7 nM and the Ki (D1 [2]) was 23 nM.
Compound `Cc1ncc2nccn2c1-c1ccc(Oc2nccc3occc23)cc1O` [Example 57, 5-(furo[3,2-c]pyridin-4-yloxy)-2-(6-methylimidazo[1,2-a]pyrazin-5-yl)phenol] has an EC50 (D1 [1]) of 116 nM and a Ki (D1 [2]) of 17.4 nM.
`Cc1cc(Oc2nccc3occc23)ccc1-c1c(C)cn[nH]c1=O` [Example 10, 4-[4-(Furo[3,2-c]pyridin-4-yloxy)-2-methylphenyl]-5-methylpyridazin-3(2H)-one, bis-hydrochloride salt] gave an EC50 (D1 [1]) of over 30000 nM and a Ki (D1 [2]) of 2280 nM.
Work on `Cc1cc(Oc2nccc3occc23)ccc1-c1nc(O)cnc1C` [Example 136, 6-[4-(furo[3,2-c]pyridin-4-yloxy)-2-methylphenyl]-5-methylpyrazin-2-ol] yielded an EC50 (D1 [1]) of 2410 nM and a Ki (D1 [2]) of 225 nM.
`Cc1cc(Oc2nccc3occc23)ccc1-c1c(C)cnnc1Cl` [Example 11, 4-[4-(3-Chloro-5-methylpyridazin-4yl)-3-methylphenoxy]furo[3,2-c]pyridine] showed an EC50 (D1 [1]) of 186 nM and a Ki (D1 [2]) of 11.8 nM.
With `Cc1n[nH]c(=O)c(C)c1-c1ccc(Oc2nccc3occ(Br)c23)cc1` [Example 211, 5-{4-[(3-bromofuro[3,2-c]pyridin-4-yl)oxy]phenyl}-4,6-dimethylpyridazin-3(2H)-one] the EC50 (D1 [1]) was 98 nM and the Ki (D1 [2]) was 6.86 nM.
In the case of `Cc1cc(Oc2nccc3occc23)ccc1-c1c(C)c(O)nc2nccn12` [Example 133, 5-[4-(furo[3,2-c]pyridin-4-yloxy)-2-methylphenyl]-6-methylimidazo[1,2-a]pyrimidin-7-ol], the EC50 (D1 [1]) is reported as 172 nM and the Ki (D1 [2]) is reported as 31.5 nM.
`Cc1ncnc(C)c1-c1ccc(Oc2nccc3occc23)cc1O` [Example 72, 2-(4,6-dimethylpyrimidin-5-yl)-5-(furo[3,2-c]pyridin-4-yloxy)phenol] was tested, and the EC50 (D1 [1]) was 989 nM and the Ki (D1 [2]) was 91.4 nM.
`CCC(=O)COc1cc(Oc2nccc3occc23)ccc1-c1cccc2nccn12` [Example 41, 1-[5-(furo[3,2-c]pyridin-4-yloxy)-2-(imidazo[1,2-a]pyridin-5-yl)phenoxy]butan-2-one, trifluoroacetate salt] was tested, and the EC50 (D1 [1]) was 517 nM and the Ki (D1 [2]) was 72.1 nM.
In the case of `Cc1ncnc(C)c1-c1ccc(Oc2nccc3occc23)c(F)c1` [Example 130, 4-[4-(4,6-dimethylpyrimidin-5-yl)-2-fluorophenoxy]furo[3,2-c]pyridine], the EC50 (D1 [1]) is reported as 1050 nM and the Ki (D1 [2]) is reported as 73 nM.
For `COc1cc(Oc2nccc3occc23)ccc1-c1cccnc1C` [Example 181, 4-[3-methoxy-4-(2-methylpyridin-3-yl)phenoxy]furo[3,2-c]pyridine], the EC50 (D1 [1]) was 803 nM and the Ki (D1 [2]) was 53.1 nM.
In the case of `Cc1cc(Oc2nccc3occc23)ccc1-c1c(C)cnc2nccn12` (single isomer, unassigned) [Example 147, 5-[4-(furo[3,2-c]pyridin-4-yloxy)-2-methylphenyl]-6-methylimidazo[1,2-a]pyrimidine], the EC50 (D1 [1]) is reported as 68 nM and the Ki (D1 [2]) is reported as 3.6 nM.
For `Cc1cc(Oc2nccc3occc23)ccc1-c1ccc(O)c2nccn12` [Example 137, 5-[4-(furo[3,2-c]pyridin-4-yloxy)-2-methylphenyl]imidazo[1,2-a]pyridin-8-ol], the EC50 (D1 [1]) was 209 nM and the Ki (D1 [2]) was 42 nM.
With `Cc1cc(Oc2nccc3occc23)ccc1-c1c(C)n[nH]c(=O)c1C` (single isomer, unassigned) [Example 134, (+)-5-[4-(furo[3,2-c]pyridin-4-yloxy)-2-methylphenyl]-4,6-dimethylpyridazin-3(2H)-one] the EC50 (D1 [1]) was 10.6 nM and the Ki (D1 [2]) was 1.82 nM.
`Cc1ncnc(C)c1-c1ccc(Oc2nccc3occc23)cc1OCc1nc(C2CC2)no1` [Example 108, 4-{3-[(3-cyclopropyl-1,2,4-oxadiazol-5-yl)methoxy]-4-(4,6-dimethylpyrimidin-5-yl)phenoxy}furo[3,2-c]pyridine] was tested, and the EC50 (D1 [1]) was 673 nM and the Ki (D1 [2]) was 55.5 nM.
`COc1cc(Oc2nccc3occc23)ccc1-c1c(C)ncc2nccn12` [Example 173, 5-[4-(furo[3,2-c]pyridin-4-yloxy)-2-methoxyphenyl]-6-methylimidazo[1,2-a]pyrazine] gave an EC50 (D1 [1]) of 564 nM and a Ki (D1 [2]) of 36.8 nM.
`Cc1cc(Oc2nccc3occc23)ccc1-c1c(C)nc(O)nc1C` [Example 152, 5-[4-(furo[3,2-c]pyridin-4-yloxy)-2-methylphenyl]-4,6-dimethylpyrimidin-2-ol] gave an EC50 (D1 [1]) of 565 nM and a Ki (D1 [2]) of 79.5 nM.
With `Cc1ncnc(C#N)c1-c1ccc(Oc2nccc3occc23)cc1F` [Example 70, 5-[2-fluoro-4-(furo[3,2-c]pyridin-4-yloxy)phenyl]-6-methylpyrimidine-4-carbonitrile] the EC50 (D1 [1]) was 424 nM and 1020 nM and the Ki (D1 [2]) was 124 nM.
Work on `CCCc1noc(COc2cc(Oc3nccc4occc34)ccc2-c2nccnc2C)n1` [Example 182, 4-{4-(3-methylpyrazin-2-yl)-3-[(3-propyl-1,2,4-oxadiazol-5-yl)methoxy]phenoxy}furo[3,2-c]pyridine, formate salt] yielded an EC50 (D1 [1]) of 641 nM and a Ki (D1 [2]) of 58 nM.
Work on `Cc1noc(C)c1COc1cc(Oc2nccc3occc23)ccc1-c1cccc2nccn12` [Example 186, 4-{3-[(3,5-dimethyl-1,2-oxazol-4-yl)methoxy]-4-(imidazo[1,2-a]pyridin-5-yl)phenoxy}furo[3,2-c]pyridine, trifluoroacetate salt] yielded an EC50 (D1 [1]) of 1020 nM and a Ki (D1 [2]) of 64.6 nM.
With `Cc1ncccc1-c1ccc(Oc2nccc3occc23)cc1OCCc1cnoc1` [Example 194, 4-{4-(2-methylpyridin-3-yl)-3-[2-(1,2-oxazol-4-yl)ethoxy]phenoxy}furo[3,2-c]pyridine, formate salt] the EC50 (D1 [1]) was 1680 nM and 1330 nM and the Ki (D1 [2]) was 88.5 nM.
For `COc1cnnc(C)c1-c1ccc(Oc2nccc3occc23)cc1C` (single isomer, unassigned) [Example 135, 4-[4-(5-methoxy-3-methylpyridazin-4-yl)-3-methylphenoxy]furo[3,2-c]pyridine], the EC50 (D1 [1]) was 276 nM and the Ki (D1 [2]) was 38.7 nM.
With `Cc1cc(Oc2nccc3occc23)ccc1-c1c(C)ncnc1N1CCC(F)C1` (stereo not drawn) [Example 98, 4-{4-[4-(3-fluoropyrrolidin-1-yl)-6-methylpyrimidin-5-yl]-3-methylphenoxy}furo[3,2-c]pyridine, trifluoroacetate salt] the EC50 (D1 [1]) was 956 nM and the Ki (D1 [2]) was 28.6 nM.
In the case of `Cc1cc(Oc2nccc3occc23)ccc1-c1cccnc1C1CC1` [Example 88, 4-[4-(2-cyclopropylpyridin-3-yl)-3-methylphenoxy]furo[3,2-c]pyridine], the EC50 (D1 [1]) is reported as 710 nM and 1520 nM and the Ki (D1 [2]) is reported as 117 nM.
Work on `Cc1ncc(N)nc1-c1ccc(Oc2nccc3occc23)cc1F` [Example 93, 6-[2-fluoro-4-(furo[3,2-c]pyridin-4-yloxy)phenyl]-5-methylpyrazin-2-amine] yielded an EC50 (D1 [1]) of 761 nM and a Ki (D1 [2]) of 88 nM.
`Cc1ncnc(C)c1-c1ccc(Oc2nccc3occc23)c2cnn(C)c12` [Example 148, 4-{[7-(4,6-dimethylpyrimidin-5-yl)-1-methyl-1H-indazol-4-yl]oxy}furo[3,2-c]pyridine, trifluoroacetate salt] was tested, and the EC50 (D1 [1]) was 777 nM and the Ki (D1 [2]) was 111 nM.
Work on `O=C(COc1cc(Oc2nccc3occc23)ccc1-c1cccc2nccn12)NC1CC1` [Example 43, N-cyclopropyl-2-[5-(furo[3,2-c]pyridin-4-yloxy)-2-(imidazo[1,2-a]pyridin-5-yl)phenoxy]acetamide, trifluoroacetate salt] yielded an EC50 (D1 [1]) of 605 nM and a Ki (D1 [2]) of 211 nM.
`c1cc(-c2ccc(Oc3nccc4sccc34)cc2)n2ccnc2c1` [Example 214, 4-[4-(imidazo[1,2-a]pyridin-5-yl)phenoxy]thieno[3,2-c]pyridine] gave an EC50 (D1 [1]) of 457 nM and a Ki (D1 [2]) of 67.6 nM.
In the case of `Cc1cc(Oc2nccc3occc23)ccc1-c1c(C)ncc(=O)n1C` (single isomer, unassigned) [Example 121, (−)-6-[4-(furo[3,2-c]pyridin-4-yloxy)-2-methylphenyl]-1,5-dimethylpyrazin-2(1H)-one], the EC50 (D1 [1]) is reported as 50.4 nM and the Ki (D1 [2]) is reported as 9.42 nM.
For `Cc1cc(Oc2nccc3occc23)ccc1-c1c(C)ncnc1N1Cc2cccnc2C1` [Example 183, 4-{4-[4-(5,7-dihydro-6H-pyrrolo[3,4-b]pyridin-6-yl)-6-methylpyrimidin-5-yl]-3-methylphenoxy}furo[3,2-c]pyridine, formate salt], the EC50 (D1 [1]) was 1400 nM and the Ki (D1 [2]) was 62.4 nM.
`COc1cc(Oc2nccc3occc23)ccc1-c1c(C)cnnc1C` (single isomer, unassigned) [Example 143, (+)-4-[4-(3,5-dimethylpyridazin-4-yl)-3-methoxyphenoxy]furo[3,2-c]pyridine] showed an EC50 (D1 [1]) of 273 nM and a Ki (D1 [2]) of 64.9 nM.
Work on `Cc1ncnc(C)c1-c1ccc(Oc2nccc3occc23)c2cccnc12` [Example 158, 8-(4,6-dimethylpyrimidin-5-yl)-5-(furo[3,2-c]pyridin-4-yloxy)quinoline] yielded an EC50 (D1 [1]) of 2690 nM and a Ki (D1 [2]) of 280 nM.
Work on `Nc1cc(Oc2nccc3occc23)ccc1-c1cccc2nccn12` [Example 16, 5-(Furo[3,2-c]pyridin-4-yloxy)-2-(imidazo[1,2-a]pyridin-5-yl)aniline] yielded an EC50 (D1 [1]) of 415 nM and a Ki (D1 [2]) of 146 nM.
`Cc1ncnc(C)c1-c1ccc(Oc2nccc3occc23)c(C)c1C` [Example 99, 4-[4-(4,6-dimethylpyrimidin-5-yl)-2,3-dimethylphenoxy]furo[3,2-c]pyridine] was tested, and the EC50 (D1 [1]) was 3040 nM and > 9950 nM and the Ki (D1 [2]) was 1370 nM.
Work on `Cc1cc(Oc2nccc3occc23)ccc1-c1c(C)cnc2nccn12` [Example 110, 5-[4-(furo[3,2-c]pyridin-4-yloxy)-2-methylphenyl]-6-methylimidazo[1,2-a]pyrimidine] yielded an EC50 (D1 [1]) of 33.8 nM and a Ki (D1 [2]) of 2.89 nM.
